Laboratory results: article PMC11471635, “Linkage of alternative exon assembly in Drosophila TrpA1 transcripts” (Molecules and Cells, 2024)

How the values were obtained:
Test in all cases: two-electrode voltage clamp, Xenopus oocytes
Format in all cases: cell-based
humTRPA1 = biological target: T1, humTRPA1 (Homo sapiens, UniProt O75762)
T1 construct: gene TRPA1; human TRPA1; cRNA-injected Xenopus laevis oocytes (electrophysiology as for insect TRPA1s)

agTRPA1(B) = biological target: T2, agTRPA1(B) (Anopheles gambiae, UniProt B3G3I7)
T2 construct: isoform with TRPA1(B)-type N-terminus and exon6a-encoded BAT; cRNA-injected Xenopus laevis oocytes
T2 sequence (B3G3I7 1-1248): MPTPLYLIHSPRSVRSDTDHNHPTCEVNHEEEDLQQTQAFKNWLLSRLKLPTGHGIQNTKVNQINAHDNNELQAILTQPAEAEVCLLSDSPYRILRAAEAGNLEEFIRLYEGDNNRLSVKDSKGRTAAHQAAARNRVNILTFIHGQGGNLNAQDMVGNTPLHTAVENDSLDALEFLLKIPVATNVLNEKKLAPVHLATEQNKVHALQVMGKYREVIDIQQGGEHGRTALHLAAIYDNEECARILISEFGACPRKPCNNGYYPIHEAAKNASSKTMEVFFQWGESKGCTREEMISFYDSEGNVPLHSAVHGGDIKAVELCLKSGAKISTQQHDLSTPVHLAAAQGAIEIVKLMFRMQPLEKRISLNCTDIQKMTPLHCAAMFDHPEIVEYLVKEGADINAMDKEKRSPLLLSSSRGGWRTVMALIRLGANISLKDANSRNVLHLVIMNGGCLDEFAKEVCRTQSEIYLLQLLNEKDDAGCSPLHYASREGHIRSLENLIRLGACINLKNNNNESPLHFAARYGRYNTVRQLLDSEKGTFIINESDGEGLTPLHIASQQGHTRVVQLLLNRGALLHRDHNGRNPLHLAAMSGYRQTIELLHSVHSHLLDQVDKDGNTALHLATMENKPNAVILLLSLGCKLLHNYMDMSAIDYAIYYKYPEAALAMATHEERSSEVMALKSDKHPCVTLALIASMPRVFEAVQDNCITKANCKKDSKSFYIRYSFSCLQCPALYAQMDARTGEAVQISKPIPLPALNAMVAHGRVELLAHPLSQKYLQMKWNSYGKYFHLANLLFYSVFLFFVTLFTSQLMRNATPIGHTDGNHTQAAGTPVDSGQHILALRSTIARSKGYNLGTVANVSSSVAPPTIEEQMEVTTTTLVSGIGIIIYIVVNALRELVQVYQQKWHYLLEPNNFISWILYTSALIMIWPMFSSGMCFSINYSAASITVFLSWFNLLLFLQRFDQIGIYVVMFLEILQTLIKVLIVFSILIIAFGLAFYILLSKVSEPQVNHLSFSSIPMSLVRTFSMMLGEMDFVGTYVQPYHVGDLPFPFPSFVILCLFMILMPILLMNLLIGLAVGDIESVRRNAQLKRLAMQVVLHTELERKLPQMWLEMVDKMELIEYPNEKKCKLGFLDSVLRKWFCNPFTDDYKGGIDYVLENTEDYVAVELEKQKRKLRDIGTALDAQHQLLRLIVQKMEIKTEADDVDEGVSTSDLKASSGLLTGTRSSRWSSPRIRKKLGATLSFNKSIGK

[1] = biological target: T3, TRPA1(A) (TRPA1(A)-exon10a) (Drosophila melanogaster, UniProt Q7Z020)
T3 construct: full-length isoform with exon1a-encoded N-terminus and exon10a-encoded BAT domain; cRNA-injected Xenopus laevis oocytes
T3 sequence (Q7Z020 1-1197): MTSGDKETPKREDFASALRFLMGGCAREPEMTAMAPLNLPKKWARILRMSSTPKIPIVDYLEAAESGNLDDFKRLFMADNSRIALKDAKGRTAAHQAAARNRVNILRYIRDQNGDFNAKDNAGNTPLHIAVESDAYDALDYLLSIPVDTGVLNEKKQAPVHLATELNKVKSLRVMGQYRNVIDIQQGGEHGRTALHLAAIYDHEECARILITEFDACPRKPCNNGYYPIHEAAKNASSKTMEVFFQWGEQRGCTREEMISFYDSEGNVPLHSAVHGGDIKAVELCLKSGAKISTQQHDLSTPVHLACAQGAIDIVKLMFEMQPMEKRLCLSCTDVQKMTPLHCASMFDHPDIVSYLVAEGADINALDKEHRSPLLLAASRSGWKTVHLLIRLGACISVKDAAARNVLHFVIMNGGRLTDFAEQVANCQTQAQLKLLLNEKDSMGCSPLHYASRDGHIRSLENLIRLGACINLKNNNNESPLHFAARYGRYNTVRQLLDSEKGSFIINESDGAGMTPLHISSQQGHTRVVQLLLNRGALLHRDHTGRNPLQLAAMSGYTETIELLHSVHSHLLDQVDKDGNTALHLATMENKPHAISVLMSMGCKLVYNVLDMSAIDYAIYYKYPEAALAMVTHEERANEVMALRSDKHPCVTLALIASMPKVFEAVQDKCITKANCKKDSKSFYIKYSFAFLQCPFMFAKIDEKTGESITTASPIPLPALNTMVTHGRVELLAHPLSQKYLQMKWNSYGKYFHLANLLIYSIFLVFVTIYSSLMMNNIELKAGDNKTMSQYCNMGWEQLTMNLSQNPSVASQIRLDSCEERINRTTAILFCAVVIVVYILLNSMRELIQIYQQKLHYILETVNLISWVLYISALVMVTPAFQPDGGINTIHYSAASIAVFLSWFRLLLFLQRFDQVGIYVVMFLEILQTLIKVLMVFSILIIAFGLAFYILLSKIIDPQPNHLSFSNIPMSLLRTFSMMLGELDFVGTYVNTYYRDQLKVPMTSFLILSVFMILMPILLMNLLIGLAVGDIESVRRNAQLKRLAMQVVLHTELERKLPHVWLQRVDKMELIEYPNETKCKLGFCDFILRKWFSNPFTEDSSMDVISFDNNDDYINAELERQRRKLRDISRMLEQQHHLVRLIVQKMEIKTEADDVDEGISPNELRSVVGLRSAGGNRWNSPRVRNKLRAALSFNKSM

agTRPA1(A) = biological target: T4, agTRPA1(A) (Anopheles gambiae, UniProt A0A1S4GN50)
T4 construct: isoform with TRPA1(A)-type N-terminus and exon6a-encoded BAT; cRNA-injected Xenopus laevis oocytes
T4 sequence (A0A1S4GN50 1-1208): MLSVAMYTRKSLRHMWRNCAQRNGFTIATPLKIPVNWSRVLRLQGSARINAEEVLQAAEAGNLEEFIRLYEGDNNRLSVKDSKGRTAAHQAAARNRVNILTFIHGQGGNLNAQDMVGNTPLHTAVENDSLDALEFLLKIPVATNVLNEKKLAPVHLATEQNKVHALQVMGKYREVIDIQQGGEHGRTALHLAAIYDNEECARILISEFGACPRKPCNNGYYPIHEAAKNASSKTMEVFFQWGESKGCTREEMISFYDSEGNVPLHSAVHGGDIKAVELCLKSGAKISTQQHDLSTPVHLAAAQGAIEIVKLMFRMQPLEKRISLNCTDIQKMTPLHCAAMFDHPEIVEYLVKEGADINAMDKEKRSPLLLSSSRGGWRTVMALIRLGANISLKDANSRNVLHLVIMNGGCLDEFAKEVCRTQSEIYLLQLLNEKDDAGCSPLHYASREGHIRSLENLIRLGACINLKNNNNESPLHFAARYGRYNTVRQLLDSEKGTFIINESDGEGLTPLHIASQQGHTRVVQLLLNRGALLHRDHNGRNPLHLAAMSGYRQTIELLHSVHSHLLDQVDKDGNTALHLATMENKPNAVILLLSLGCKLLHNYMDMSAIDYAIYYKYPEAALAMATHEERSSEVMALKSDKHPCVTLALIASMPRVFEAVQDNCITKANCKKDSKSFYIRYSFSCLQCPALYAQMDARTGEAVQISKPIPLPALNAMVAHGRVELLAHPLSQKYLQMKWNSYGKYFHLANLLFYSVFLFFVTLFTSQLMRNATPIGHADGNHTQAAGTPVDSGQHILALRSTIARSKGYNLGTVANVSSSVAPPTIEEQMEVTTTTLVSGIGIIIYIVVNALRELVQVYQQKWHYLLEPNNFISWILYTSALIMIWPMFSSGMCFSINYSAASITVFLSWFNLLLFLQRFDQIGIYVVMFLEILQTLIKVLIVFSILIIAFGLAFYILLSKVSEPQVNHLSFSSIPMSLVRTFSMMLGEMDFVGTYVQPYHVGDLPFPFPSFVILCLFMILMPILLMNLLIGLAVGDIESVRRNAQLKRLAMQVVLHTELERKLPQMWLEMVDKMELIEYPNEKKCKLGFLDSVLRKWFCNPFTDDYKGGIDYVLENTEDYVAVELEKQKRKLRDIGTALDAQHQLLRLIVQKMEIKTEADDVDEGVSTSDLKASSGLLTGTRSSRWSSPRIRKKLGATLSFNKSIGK

T1 sequence (O75762 whole entry): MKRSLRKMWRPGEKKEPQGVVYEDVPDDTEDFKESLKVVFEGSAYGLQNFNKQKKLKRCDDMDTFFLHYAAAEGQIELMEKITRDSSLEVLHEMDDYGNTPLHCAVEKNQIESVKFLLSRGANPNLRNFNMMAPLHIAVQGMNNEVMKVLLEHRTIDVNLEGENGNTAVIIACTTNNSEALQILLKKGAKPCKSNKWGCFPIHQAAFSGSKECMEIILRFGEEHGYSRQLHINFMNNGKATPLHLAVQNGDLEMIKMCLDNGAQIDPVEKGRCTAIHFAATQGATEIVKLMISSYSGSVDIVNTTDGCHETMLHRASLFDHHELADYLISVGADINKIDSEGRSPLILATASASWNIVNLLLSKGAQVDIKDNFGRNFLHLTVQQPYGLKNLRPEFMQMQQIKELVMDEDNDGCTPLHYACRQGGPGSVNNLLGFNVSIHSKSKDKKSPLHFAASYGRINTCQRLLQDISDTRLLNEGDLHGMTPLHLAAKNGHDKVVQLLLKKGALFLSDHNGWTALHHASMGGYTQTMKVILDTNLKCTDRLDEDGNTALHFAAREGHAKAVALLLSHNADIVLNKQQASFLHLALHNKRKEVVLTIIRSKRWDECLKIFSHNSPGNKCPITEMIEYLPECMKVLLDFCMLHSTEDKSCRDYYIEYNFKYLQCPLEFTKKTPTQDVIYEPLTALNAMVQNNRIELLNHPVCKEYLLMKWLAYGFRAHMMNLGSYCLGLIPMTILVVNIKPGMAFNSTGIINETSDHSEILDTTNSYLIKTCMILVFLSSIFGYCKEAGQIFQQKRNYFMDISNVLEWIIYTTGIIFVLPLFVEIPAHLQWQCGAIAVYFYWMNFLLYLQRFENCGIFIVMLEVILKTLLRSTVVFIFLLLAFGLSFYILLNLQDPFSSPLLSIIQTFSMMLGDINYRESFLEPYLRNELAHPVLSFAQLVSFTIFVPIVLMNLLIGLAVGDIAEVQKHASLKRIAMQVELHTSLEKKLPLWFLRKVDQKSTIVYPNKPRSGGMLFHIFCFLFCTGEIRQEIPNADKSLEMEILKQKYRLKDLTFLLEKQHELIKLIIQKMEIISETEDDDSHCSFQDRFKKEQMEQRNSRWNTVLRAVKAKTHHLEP

CN1C(=O)C=CC1=O [N-methyl maleimide]
EC50 (humTRPA1): 5.1 ± 0.5 µM
EC50 (agTRPA1(B)): 39.5 ± 1.1 µM
EC50 [1]: 13.6 ± 0.6 µM
EC50 (agTRPA1(A)): 43.8 ± 3.9 µM
